Test system: 873145-292-R-J1-PDC complex spheroid viability
Assay: Anticancer human tumor 873145-292-R-J1-PDC patient-derived renal clear cell carcinoma cell line growth inhibition [POLQ]
Settings: for IC50: curve of first compound; for viability, T/C: stronger effect = lower value
In short: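 Three-cell-type spheroids modelling solid tumor plus stroma served as the readout system; POL inhibitors were tested individually and in combination, concentration ranges set by clinical Cmax where known.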

[1] = second compound 0.0316 µM, first compound 0.00316 µM
[2] = second compound 0.0316 µM, first compound 0.01 µM
[3] = second compound 0.0316 µM, first compound 0.0316 µM
[4] = second compound 0.0316 µM, first compound 0.1 µM
[5] = second compound 0.0316 µM, first compound 0.316 µM
[6] = second compound 0.0316 µM, first compound 1 µM
[7] = second compound 0.1 µM, first compound 0.00316 µM
[8] = second compound 0.1 µM, first compound 0.01 µM
[9] = second compound 0.1 µM, first compound 0.0316 µM
[10] = second compound 0.1 µM, first compound 0.1 µM
[11] = second compound 0.1 µM, first compound 0.316 µM
[12] = second compound 0.1 µM, first compound 1 µM
[13] = second compound 0.316 µM, first compound 0.00316 µM
[14] = second compound 0.316 µM, first compound 0.01 µM
[15] = second compound 0.316 µM, first compound 0.0316 µM
[16] = second compound 0.316 µM, first compound 0.1 µM
[17] = second compound 0.316 µM, first compound 0.316 µM
[18] = second compound 0.316 µM, first compound 1 µM
[19] = second compound 1 µM, first compound 0.00316 µM
[20] = second compound 1 µM, first compound 0.01 µM
[21] = second compound 1 µM, first compound 0.0316 µM
[22] = second compound 1 µM, first compound 0.1 µM
[23] = second compound 1 µM, first compound 0.316 µM
[24] = second compound 1 µM, first compound 1 µM
[25] = second compound 3.16 µM, first compound 0.00316 µM
[26] = second compound 3.16 µM, first compound 0.01 µM
[27] = second compound 3.16 µM, first compound 0.0316 µM
[28] = second compound 3.16 µM, first compound 0.1 µM
[29] = second compound 3.16 µM, first compound 0.316 µM
[30] = second compound 3.16 µM, first compound 1 µM
[31] = second compound 10 µM, first compound 0.00316 µM
[32] = second compound 10 µM, first compound 0.01 µM
[33] = second compound 10 µM, first compound 0.0316 µM
[34] = second compound 10 µM, first compound 0.1 µM
[35] = second compound 10 µM, first compound 0.316 µM
[36] = second compound 10 µM, first compound 1 µM
[37] = second compound 0.0316 µM, first compound 3.16 µM
[38] = second compound 0.0316 µM, first compound 10 µM
[39] = second compound 0.1 µM, first compound 3.16 µM
[40] = second compound 0.1 µM, first compound 10 µM
[41] = second compound 0.316 µM, first compound 3.16 µM
[42] = second compound 0.316 µM, first compound 10 µM
[43] = second compound 1 µM, first compound 3.16 µM
[44] = second compound 1 µM, first compound 10 µM
[45] = second compound 3.16 µM, first compound 3.16 µM
[46] = second compound 3.16 µM, first compound 10 µM
[47] = second compound 10 µM, first compound 3.16 µM
[48] = second compound 10 µM, first compound 10 µM
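Further: spheroids exposed to compounds for 7 days before viability readout.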
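Wherever viability, T/C is given: luminescence signal used as surrogate for viable cell content; 100% = DMSO vehicle control viability.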

`C=CCn1c(=O)c2cnc(Nc3ccc(N4CCN(C)CC4)cc3)nc2n1-c1cccc(C(C)(C)O)n1` + Cc1cccc(N(C)C(=O)C2C(O)CCN2c2nc(C)cc(C(F)(F)F)c2C#N)c1 gave an IC50 (second compound 0.0316 µM) greater than 1 µM, an IC50 (second compound 0.1 µM) greater than 1 µM and an IC50 (second compound 0.316 µM) greater than 1 µM. For the same compound, the IC50 (second compound 1 µM) was greater than 1 µM, the IC50 (second compound 3.16 µM) was greater than 1 µM and the IC50 (second compound 10 µM) was greater than 1 µM. The viability, T/C [1] was 93.1%, the viability, T/C [2] was 104% and the viability, T/C [3] was 102%. For the same compound, the viability, T/C [4] was 92%, the viability, T/C [5] was 83.3% and the viability, T/C [6] was 77.8%. For the same compound, the viability, T/C [7] was 101%, the viability, T/C [8] was 97.3% and the viability, T/C [9] was 96%. The viability, T/C [10] was 87.1%, the viability, T/C [11] was 88.3% and the viability, T/C [12] was 76.7%. For the same compound, the viability, T/C [13] was 101%, the viability, T/C [14] was 110% and the viability, T/C [15] was 82.8%. For the same compound, the viability, T/C [16] was 94.6%, the viability, T/C [17] was 81.4% and the viability, T/C [18] was 74.9%. It also gave a viability, T/C [19] of 89.8%, a viability, T/C [20] of 94.4% and a viability, T/C [21] of 101%. It also gave a viability, T/C [22] of 85.8%, a viability, T/C [23] of 87.5% and a viability, T/C [24] of 75.5%. For the same compound, the viability, T/C [25] was 97.7%, the viability, T/C [26] was 120% and the viability, T/C [27] was 112%. It also gave a viability, T/C [28] of 91.3%, a viability, T/C [29] of 86.9% and a viability, T/C [30] of 81.7%. The viability, T/C [31] was 93.2%, the viability, T/C [32] was 97.2% and the viability, T/C [33] was 102%. The viability, T/C [34] was 85.1%, the viability, T/C [35] was 81.4% and the viability, T/C [36] was 75.3%.

For `CC[C@@]1(O)C(=O)OCc2c1cc1n(c2=O)Cc2cc3c(CN(C)C)c(O)ccc3nc2-1` + Cc1cccc(N(C)C(=O)C2C(O)CCN2c2nc(C)cc(C(F)(F)F)c2C#N)c1, the IC50 (second compound 0.0316 µM) was greater than 0.1 µM, the IC50 (second compound 0.1 µM) was greater than 0.1 µM and the IC50 (second compound 0.316 µM) was 0.0922 µM. The IC50 (second compound 1 µM) was greater than 0.1 µM, the IC50 (second compound 3.16 µM) was greater than 0.1 µM and the IC50 (second compound 10 µM) was greater than 0.1 µM. For the same compound, the viability, T/C (second compound 0.0316 µM, first compound 0.000316 µM) was 105%, the viability, T/C (second compound 0.0316 µM, first compound 0.001 µM) was 95.2% and the viability, T/C [1] was 89.6%. It also gave a viability, T/C [2] of 104%, a viability, T/C [3] of 73.7% and a viability, T/C [4] of 52.5%. The viability, T/C (second compound 0.1 µM, first compound 0.000316 µM) was 93.3%, the viability, T/C (second compound 0.1 µM, first compound 0.001 µM) was 101% and the viability, T/C [7] was 97.8%. For the same compound, the viability, T/C [8] was 101%, the viability, T/C [9] was 74.4% and the viability, T/C [10] was 52.2%. For the same compound, the viability, T/C (second compound 0.316 µM, first compound 0.000316 µM) was 94.9%, the viability, T/C (second compound 0.316 µM, first compound 0.001 µM) was 113% and the viability, T/C [13] was 96.8%. It also gave a viability, T/C [14] of 97.3%, a viability, T/C [15] of 78.7% and a viability, T/C [16] of 47.8%. It also gave a viability, T/C (second compound 1 µM, first compound 0.000316 µM) of 101%, a viability, T/C (second compound 1 µM, first compound 0.001 µM) of 98.9% and a viability, T/C [19] of 87.9%. The viability, T/C [20] was 104%, the viability, T/C [21] was 75% and the viability, T/C [22] was 59.2%. The viability, T/C (second compound 3.16 µM, first compound 0.000316 µM) was 89.6%, the viability, T/C (second compound 3.16 µM, first compound 0.001 µM) was 91.5% and the viability, T/C [25] was 92.8%. For the same compound, the viability, T/C [26] was 97.8%, the viability, T/C [27] was 78% and the viability, T/C [28] was 63.9%. It also gave a viability, T/C (second compound 10 µM, first compound 0.000316 µM) of 93.4%, a viability, T/C (second compound 10 µM, first compound 0.001 µM) of 95.2% and a viability, T/C [31] of 94.5%. It also gave a viability, T/C [32] of 98.8%, a viability, T/C [33] of 81.8% and a viability, T/C [34] of 54.5%.

`Nc1ccn(C2OC(CO)C(O)C2(F)F)c(=O)n1` (stereo not drawn) + Cc1cccc(N(C)C(=O)C2C(O)CCN2c2nc(C)cc(C(F)(F)F)c2C#N)c1 showed an IC50 (second compound 0.0316 µM) of 9.95 µM, an IC50 (second compound 0.1 µM) greater than 10 µM and an IC50 (second compound 0.316 µM) of 4.94 µM. For the same compound, the IC50 (second compound 1 µM) was greater than 10 µM, the IC50 (second compound 3.16 µM) was 5.41 µM and the IC50 (second compound 10 µM) was greater than 10 µM. The viability, T/C [3] was 67.6%, the viability, T/C [4] was 58.3% and the viability, T/C [5] was 51.4%. It also gave a viability, T/C [6] of 53.3%, a viability, T/C [37] of 53.5% and a viability, T/C [38] of 52.6%. The viability, T/C [9] was 82.3%, the viability, T/C [10] was 68.8% and the viability, T/C [11] was 51.8%. It also gave a viability, T/C [12] of 59.8%, a viability, T/C [39] of 55% and a viability, T/C [40] of 56.1%. It also gave a viability, T/C [15] of 62%, a viability, T/C [16] of 63.5% and a viability, T/C [17] of 54.6%. It also gave a viability, T/C [18] of 58.9%, a viability, T/C [41] of 54.9% and a viability, T/C [42] of 43.8%. The viability, T/C [21] was 66.9%, the viability, T/C [22] was 52.5% and the viability, T/C [23] was 52.3%. The viability, T/C [24] was 49.6%, the viability, T/C [43] was 53.1% and the viability, T/C [44] was 50.3%. It also gave a viability, T/C [27] of 72.3%, a viability, T/C [28] of 63.8% and a viability, T/C [29] of 55.4%. It also gave a viability, T/C [30] of 55.4%, a viability, T/C [45] of 56.1% and a viability, T/C [46] of 45.1%. For the same compound, the viability, T/C [33] was 69.2%, the viability, T/C [34] was 63.4% and the viability, T/C [35] was 62.9%. For the same compound, the viability, T/C [36] was 58.5%, the viability, T/C [47] was 59.7% and the viability, T/C [48] was 58.8%.

`O=C(c1cc(Cc2n[nH]c(=O)c3ccccc23)ccc1F)N1CCN(C(=O)C2CC2)CC1` + Cc1cccc(N(C)C(=O)C2C(O)CCN2c2nc(C)cc(C(F)(F)F)c2C#N)c1 gave an IC50 (second compound 0.0316 µM) greater than 10 µM, an IC50 (second compound 0.1 µM) greater than 10 µM and an IC50 (second compound 0.316 µM) greater than 10 µM. The IC50 (second compound 1 µM) was greater than 10 µM, the IC50 (second compound 3.16 µM) was greater than 10 µM and the IC50 (second compound 10 µM) was greater than 10 µM. For the same compound, the viability, T/C [3] was 104%, the viability, T/C [4] was 110% and the viability, T/C [5] was 87.7%. For the same compound, the viability, T/C [6] was 101%, the viability, T/C [37] was 102% and the viability, T/C [38] was 94.8%. For the same compound, the viability, T/C [9] was 103%, the viability, T/C [10] was 104% and the viability, T/C [11] was 90.4%. The viability, T/C [12] was 102%, the viability, T/C [39] was 99.9% and the viability, T/C [40] was 90.8%. It also gave a viability, T/C [15] of 94.4%, a viability, T/C [16] of 92.1% and a viability, T/C [17] of 103%. For the same compound, the viability, T/C [18] was 88.4%, the viability, T/C [41] was 106% and the viability, T/C [42] was 92.2%. The viability, T/C [21] was 103%, the viability, T/C [22] was 89% and the viability, T/C [23] was 87.8%. The viability, T/C [24] was 106%, the viability, T/C [43] was 94.3% and the viability, T/C [44] was 87.7%. For the same compound, the viability, T/C [27] was 92.9%, the viability, T/C [28] was 93.2% and the viability, T/C [29] was 111%. For the same compound, the viability, T/C [30] was 103%, the viability, T/C [45] was 96.8% and the viability, T/C [46] was 98.9%. It also gave a viability, T/C [33] of 100%, a viability, T/C [34] of 93.3% and a viability, T/C [35] of 91%. The viability, T/C [36] was 102%, the viability, T/C [47] was 102% and the viability, T/C [48] was 107%.
